Laboratory results: PMC2731040 (BMC Clinical Pharmacology, 2009)

Legend:
[1] = humans; cited from earlier work
[2] = molecular target: T1, MAO-B (Homo sapiens, UniProt P27338); type: in vivo; conditions: Day 3–4 After Cocaine Preselegiline
T1 construct: Twelve nondependent cocaine-experienced subjects received deuterium-labeled cocaine-d5 intravenously; from tissue; host or cells: whole body of living human subjects (in vivo); 24-hour urine analysed for PEA
T1 sequence (P27338 1-520): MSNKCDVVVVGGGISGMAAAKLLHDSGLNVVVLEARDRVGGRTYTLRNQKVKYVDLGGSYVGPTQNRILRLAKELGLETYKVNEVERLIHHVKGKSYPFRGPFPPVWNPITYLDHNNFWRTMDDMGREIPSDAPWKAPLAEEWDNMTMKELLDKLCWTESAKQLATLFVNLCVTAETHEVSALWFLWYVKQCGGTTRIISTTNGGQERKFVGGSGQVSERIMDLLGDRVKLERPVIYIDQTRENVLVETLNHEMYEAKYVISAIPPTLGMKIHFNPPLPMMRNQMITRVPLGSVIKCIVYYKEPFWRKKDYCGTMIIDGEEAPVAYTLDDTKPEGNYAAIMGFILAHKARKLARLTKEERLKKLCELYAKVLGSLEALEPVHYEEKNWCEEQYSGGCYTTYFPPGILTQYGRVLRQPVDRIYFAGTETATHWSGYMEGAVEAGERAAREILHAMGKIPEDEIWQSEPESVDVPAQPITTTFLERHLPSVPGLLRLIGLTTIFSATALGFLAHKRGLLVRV
Excerpt: (§1) The interactions between MAO-A inhibitors and cocaine administered are largely unexplored. […] Therefore, measurement of dopaminergic and noradrenergic tone may be important in predicting toxic events. We measured dopaminergic tone with the surrogate marker of plasma HVA, the major brain metabolite of dopamine, and serum levels of prolactin, a hormone whose secretion is inhibited by dopamine. The surrogate for noradrenergic tone was urine concentrations of MHPG-S. In order to assess the degree of MAO-A and MAO-B inhibition, we assayed concentrations of a substrate of MAO-B, phenylethylamine (PEA). PEA would be expected to increase with MAO-B inhibition, and concentrations of MHPG-S, which is a metabolite of norepinephrine produced by MAO-A primarily in the brain [20], would be expected to decrease.
(§2) When subjects were in the GCRC, all urine was collected and volumes recorded. Following each cocaine infusion, urine was collected in fractions from 0 to 24, 24 to 48, and 48 to 72 hours (timed from the start of the infusion). Samples were then frozen at -70°C until analyzed. […] A qualitative screen for drugs of abuse was obtained every other day for the entire study period.

[3] = test system: dopaminergic tone; test: Serum prolactin and plasma HVA (surrogate markers of dopaminergic tone); type: in vivo, human; conditions: both challenge sessions; change within each session not significant
Excerpt: as §1

[4] = test system: noradrenergic tone; test: Urinary MHPG-S excretion (surrogate for noradrenergic tone, MAO-A metabolite); type: in vivo, human
Excerpt: as §1, §2
Concentrations of MHPG-S in urine were determined using LC-MS/MS [29]. […] As urinary creatinine excretion is directly related to glomerular filtration and renal blood flow, and urinary creatinine excretion is relatively constant (~1 gm/day), it can be used to estimate concentrations of a substance during a 24 hour urine collection period. Using ratios of the concentrations of MHPG-S to creatinine obtained from assays of these spot urine samples, MGPG-S concentrations during the outpatient period (when subjects would be unlikely to provide accurate 24 hour urine collections) were compared to those from urine samples on inpatient days.

[5] = test system: nondependent cocaine-experienced subjects; test: Physiologic measures during cocaine challenge sessions; type: in vivo, human; conditions: for Systolic Blood Pressure, Peak change: Mean ± SD, 12 subjects
Experimental: Heart rate, systolic and diastolic blood pressure were measured using a cardiovascular monitor (Dinamap by Critikon, Vital Signs Monitor 1846 SX). Rate pressure product was calculated as the product of systolic blood pressure and heart rate. Respiration rate was measured by counting the number of inhalations per minute. These vital signs were determined with the patient in a supine position for at least 10 minutes.
(§3) Heart rate, blood pressure, respiration rate, skin and core temperature were recorded at specific times during the study. During infusions, measures were obtained pre-dose and at 0.17, 0.5, 0.75, 1, 1.5, 2, 2.5, 3, 3.5, 4, 4.25, 4.5, 5, 6, 8, 12, 18, 24, 36, 48, and 72 hours after dosing. The electrocardiogram was monitored continuously during the infusion and for 4 hours after the termination of the intravenous cocaine infusion. EKG tracings were recorded at each data collection point.
The time courses of physiologic and subjective data were analyzed by repeated measures analysis of variance (ANOVA). Treatment conditions (Sessions 1 and 2) and observation times (hours post-dose) were considered within-subject factors. Change scores (post-dose minus pre-dose values) were used in most analyses. Raw score were used where indicated. After a significant F test, pairwise comparisons of treatment conditions were performed using the least squares means analysis. Peak effects within a session were determined for each subject and each variable and analyzed using a one-factor repeated measures ANOVA. Effects were considered statistically significant at p = 0.05. Data were adjusted for sphericity using the Huynh-Feldt adjustment factor. Huynh-Feldt-corrected significance values are reported.

[6] = test system: nondependent cocaine-experienced subjects; test: Adverse events and cardiovascular safety monitoring; type: in vivo, human
Experimental: as §3

[7] = Session 1: first cocaine infusion, before selegiline
[8] = Session 2: second cocaine infusion, after one week of selegiline STS
[9] = both cocaine challenge sessions, p < 0.01

In the case of `COC(=O)[C@H]1[C@@H](OC(=O)c2ccccc2)C[C@@H]2CC[C@H]1N2C` [Cocaine, cocaine], the “half life of acute pharmacokinetic and dynamic effects” value [1] is given as “about 1 hour”, the “Total Amount of PEA Excreted in the 24 Hour Urine Collection” value [2] is given as 0.003 ± 0.004 mg and the “Serum prolactin levels after cocaine, change within session” value [3] is given as “numerically decreased”. For the same compound, the “Total Amount of MHPG-S Excreted in the 24 Hour Urine Collection” value ([4]; Day 3–4 After Cocaine Preselegiline) was 1.44 ± 0.43 mg, the “Urine MHPG-S/creatinine concentration ratios vs the day before cocaine challenge” value ([4]; second day after the first cocaine challenge, p < 0.05) was “increased significantly” and the “Core Temperature, Peak Time” value [5, 7] was 4.5 ± 1.6 Hr Postdose. The “Core Temperature, Peak change” value [5, 7] was 0.7 ± 0.2 °C, the “Diastolic Blood Pressure, Peak Time” value [5, 7] was 2.8 ± 2.4 Hr Postdose and the “Diastolic Blood Pressure, Peak change” value [5, 7] was 10 ± 5 mmHg. The “Heart Rate, Peak Time” value [5, 7] was 0.8 ± 0.9 Hr Postdose, the “Heart Rate, Peak change” value [5, 7] was 26 ± 10 beats/min and the “Rate Pressure Product, Peak Time” value [5, 7] was 1.4 ± 1.5 Hr Postdose. For the same compound, the “Rate Pressure Product, Peak change” value [5, 7] was 4224 ± 1638 SBP*HR, the “Respiration Rate, Peak Time” value [5, 7] was 0.9 ± 1.3 Hr Postdose and the “Respiration Rate, Peak change” value [5, 7] was 3.8 ± 4.0 inhal/min. For the same compound, the “Skin Temperature, Peak Time” value [5, 7] was 0.8 ± 0.4 Hr Postdose, the “Skin Temperature, Peak change” value [5, 7] was -5.4 ± 2.7 °C and the “Systolic Blood Pressure, Peak Time” value [5, 7] was 2.2 ± 1.9 Hr Postdose. The “Systolic Blood Pressure, Peak change” value ([5]; Session 1: first cocaine infusion, day 1, before selegiline) was 17 ± 8 mmHg, the “Core Temperature, Peak Time” value [5, 8] was 4.2 ± 1.9 Hr Postdose and the “Core Temperature, Peak change” value [5, 8] was 0.7 ± 0.5 °C. For the same compound, the “Diastolic Blood Pressure, Peak Time” value [5, 8] was 2 ± 2 Hr Postdose, the “Diastolic Blood Pressure, Peak change” value [5, 8] was 12 ± 6 mmHg and the “Heart Rate, Peak Time” value [5, 8] was 0.9 ± 1.7 Hr Postdose. The “Heart Rate, Peak change” value [5, 8] was 27 ± 12 beats/min, the “Rate Pressure Product, Peak Time” value [5, 8] was 0.9 ± 1.6 Hr Postdose and the “Rate Pressure Product, Peak change” value [5, 8] was 4437 ± 2333 SBP*HR. The “Respiration Rate, Peak Time” value [5, 8] was 0.4 ± 0.3 Hr Postdose, the “Respiration Rate, Peak change” value [5, 8] was 3.8 ± 3.6 inhal/min and the “Skin Temperature, Peak Time” value [5, 8] was 1.0 ± 1.2 Hr Postdose. The “Skin Temperature, Peak change” value [5, 8] was -5 ± 3.2 °C, the “Systolic Blood Pressure, Peak Time” value [5, 8] was 1.9 ± 1.7 Hr Postdose and the “Systolic Blood Pressure, Peak change” value ([5]; Session 2: second cocaine infusion, day 11, after one week of selegiline STS patch 6 mg/24 hours) was 17 ± 9 mmHg. The “Skin temperature compared to baseline” value [5, 9] was “decreased significantly”, the “Systolic blood pressure, heart rate, and rate pressure product compared to baseline” value [5, 9] was “increased significantly” and the “Diastolic blood pressure, respiration rate, and core temperature” value ([5]; cocaine either alone or with selegiline) was “did not alter”. The Adverse events ([6]; STS 6 mg/24 hours, cocaine-d5 IV 2.5 mg/kg over 4 hours) was “One subject vomited” and the “Adverse effects of cocaine following selegiline administration” value ([6]; cocaine infusion after one week of STS) was “No significant adverse effects”.
